Patent US8188048B2 (priority 2006, dated 2012)
Where “and” joins values, the source holds several entries; their conditions need not be identical. Equal entries are not always repeated.

System: CCI-rats (chronic constriction injury of the sciatic nerve); tactile allodynia in ipsilateral hindpaw, antinociception in contralateral hindpaw
Set-up: species or system Sprague-Dawley rats
Conditions: rat, in vivo

With “pGlu Gly Val Cys1 Cys2 Gly Tyr Lys Leu Cys3 His Hyp Cys4 [SEQ ID NO: 6]” the ED10 was 0.2 nmol, the ED20 was 0.4 nmol and the “ED50 for antinociception in the contralateral hindpaw” value was 15.2 nmol. The “ED50 for the alleviation of tactile allodynia in the ipsilateral hindpaw” value was 14.8 (±1.1) nmol and 15.7 (±3.9) nmol, the “change of mean PWT by 5 min post-dosing” value was “more than doubled” and the duration of action was 2 to 3 h and > 4 h. The “duration of action relative to a similarly large dose of i.t. morphine (35 nmol)” value was about 10 fold, the “duration of anti-allodynic response relative to the 10 nmol dose” value was > 7 fold and > 13 fold and the “duration of the anti-allodynic response” value was ~30 h and ~54 h. For the same substance, the “effect on PWT in both the ipsilateral and contralateral hindpaws” value was “dose-dependent increase”, the “extent and duration (PWT AUCs) of ipsilateral responses relative to contralateral responses” value was about 2 fold and the “time of peak anti-allodynic and antinociceptive effects” value was 1 to 1.5 h. For the same substance, the “time of peak antiallodynic and antinociceptive effects post-dosing” value was 15 min and the “time of peak effect” value was 1 to 1.5 h.
